Laboratory results reported in paper PMC6559944 (Journal of medicinal chemistry, 2019).
Entries after “also recorded” stand apart in the source; their conditions may differ. Like-named read-outs stand apart in the source and are kept apart here.

Legend:
[1] = mouse, in vivo, 25 mg/kg; for Half Life: po
[2] = mice, 25 mg/kg PO, feces collected 24 h
[3] = test system: Nluc-expressing C. parvum; settings: for Efficacy (reduction in oocyst shedding / infection), in words: oral, 5 days, doses of Table 3
[4] = mouse, in vivo
[5] = test system: human cell lines
[6] = test system: human ether-á-go-go related gene (hERG); settings: cited from earlier work
[7] = mouse, in vivo; remark: listed apart in the source
[8] = rat
[9] = IFN-γ KO mice, 60 mg/kg QD for 5 days

5-amino-3-(2-cyclopropoxyquinolin-6-yl)-1-(4-hydroxybutan-2-yl)-1H-pyrazole-4-carboxamide [Compound 10]
Oral Clearance [1]: 0.1 mL/min
Half Life [1]: 2.047 h
Fecal concentration from 25 mg/kg dose [2]: 4.5 µM

CCOc1ccc2cc(-c3nn(C(C)(C)CCO)c(N)c3C(N)=O)ccc2c1 [Compound 15, 5-amino-3-(6-ethoxynaphthalen-2-yl)-1-(4-hydroxy-2-methylbutan-2-yl)-1H-pyrazole-4-carboxamide]
Efficacy in words ([3]; IFN-γ KO mice, 5 mg/kg BID for 5 days): failed to provide an efficacious result
Efficacy in words ([3]; IFN-γ KO mice, 15 mg/kg BID for 5 days): failed to provide an efficacious result
Efficacy in words ([3]; IFN-γ KO mice, 30 mg/kg BID for 5 days, 30 mg/kg): efficacious; also recorded: reductions to below the LLOD
Log reduction (to below the LLOD) ([3]; IFN-γ KO mice, 60 mg/kg BID for 5 days): 4 log
Efficacy in words [3, 9]: failed to provide an efficacious result
Efficacy in words ([3]; IFN-γ KO mice, 120 mg/kg QD for 5 days): reductions to below the LLOD
Efficacy (reduction in oocyst shedding / infection), in words ([3]; IFN-γ KO mice): significant reduction in oocyst shedding
CBC and serum chemistry results [4]: within the normal range
Histological analysis of all major organs [4]: no abnormalities
Observable signs of toxicity ([4]; 150 mg/kg): Neither dose concentration showed any observable signs of toxicity
Toxicity to human cell lines [5]: not toxic to a variety of human cell lines

CCOc1ccc2cc(-c3nn(CC(C)(C)CO)c(N)c3C(N)=O)ccc2c1 [Compound 3, 5-amino-3-(6-ethoxynaphthalen-2-yl)-1-(3-hydroxy-2,2-dimethylpropyl)-1H-pyraz-+ole-4-carboxamide]
Fecal concentration from 25 mg/kg dose [2]: 7.6 µM
Efficacy (reduction in oocyst shedding / infection), in words ([3]; IFN-γ KO mice): failed to reduce infection; also recorded: Failed efficacy, low c-Src IC50

CCOc1ccc2cc(-c3nn(C(C)(C)CO)c(N)c3C(N)=O)ccc2n1 [Compound 20, 5-amino-3-(2-ethoxyquinolin-6-yl)-1-(1-hydroxy-2-methylpropan-2-yl)-1H-pyrazole-4-carboxamide]
Fecal concentration from 25 mg/kg dose [2]: 0.41 µM
Efficacy in words ([3]; IFN-γ KO mice, 10 mg/kg BID): failed to provide a significant reduction from initial infection levels
Efficacy in words ([3]; IFN-γ KO mice, 20 mg/kg BID): failed to provide a significant reduction from initial infection levels
Efficacy in words [3, 9]: efficacious to the LLOD
Efficacy (reduction in oocyst shedding / infection), in words ([3]; IFN-γ KO mice): significant reduction in oocyst shedding

CCOc1ccc2cc(-c3nn(C(C)CCO)c(N)c3C(N)=O)cnc2c1 (centres unmarked) [Compound 7, 5-amino-3-(7-ethoxyquinolin-3-yl)-1-(4-hydroxybutan-2-yl)-1H-pyrazole-4-carboxamide]
Fecal concentration from 25 mg/kg dose [2]: 1.1 µM
Efficacy (reduction in oocyst shedding / infection), in words ([3]; IFN-γ KO mice): significant reduction in oocyst shedding

5-amino-3-(7-cyclopropoxyquinolin-3-yl)-1-(4-hydroxybutan-2-yl)-1H-pyrazole-4-carboxamide [Compound 11]
Oral Clearance [1]: 0.7 mL/min
Half Life [1]: 1.42 h
Efficacy (reduction in oocyst shedding / infection), in words ([3]; IFN-γ KO mice): significant reduction in oocyst shedding

CCOc1ccc2cc(-c3nn(C(C)(C)CO)c(N)c3C(N)=O)ccc2c1 [Compound 21, 5-amino-3-(6-ethoxynaphthalen-2-yl)-1-(1-hydroxy-2-methylpropan-2-yl)-1H-pyrazole-4-carboxamide]
Fecal concentration from 25 mg/kg dose [2]: 7.1 µM
Efficacy (reduction in oocyst shedding / infection), in words ([3]; IFN-γ KO mice): failed to reduce infection; also recorded: Failed efficacy

CCOc1ccc2cc(-c3nn(C(C)(C)C)c(N)c3C(N)=O)cnc2c1 [BKI 1517]
hERG inhibition signal in vitro [6]: did not have significant in vitro hERG inhibition signal

CCOc1ccc2cc(-c3nn(C(C)(C)CO)c(N)c3C(N)=O)cnc2c1 [Compound 19, 5-amino-3-(7-ethoxyquinolin-3-yl)-1-(1-hydroxy-2-methylpropan-2-yl)-1H-pyrazole-4-carboxamide]
Fecal concentration from 25 mg/kg dose [2]: 2.9 µM

CC(C)(C)n1nc(-c2ccc3cc(OC4CC4)ccc3c2)c(C(N)=O)c1N [Compound 25, 5-amino-1-(tert-butyl)-3-(6-cyclopropoxynaphthalen-2-yl)-1H-pyrazole-4-carboxamide]
Fecal concentration from 25 mg/kg dose [2]: 0.42 µM
Efficacy in words ([3]; IFN-γ KO mice, 15 mg/kg QD for 5 days): failed to reduce infections from their initial levels
Efficacy in words ([3]; IFN-γ KO mice, 30 mg/kg QD for 5 days): reduced infection to below the LLOD
Efficacy in words [3, 9]: efficacious
Efficacy (reduction in oocyst shedding / infection), in words ([3]; IFN-γ KO mice): efficacious
CBC and serum chemistry results [4]: within the normal range
Histological analysis of all major organs [4]: no abnormalities
Observable signs of toxicity ([4]; 100 mg/kg): No signs of toxicity were observed
Observable signs of toxicity ([4]; 250 mg/kg): Minor signs of toxicity
Plasma Concentration ([7]; 100 mg/kg): 19.9 ± 5.4 µM
Plasma Concentration ([7]; 100 mg/kg, 2 h): 49.2 ± 4.7 µM
Plasma Concentration ([7]; 250 mg/kg): 36.1 ± 16.7 µM

CCOc1ccc2cc(-c3nn(CC4CC4)c(N)c3C(N)=O)ccc2c1 [Compound 27, 5-amino-1-(cyclopropylmethyl)-3-(6-ethoxynaphthalen-2-yl)-1H-pyrazole-4-carboxamide]
Fecal concentration from 25 mg/kg dose [2]: 54 µM
Efficacy (reduction in oocyst shedding / infection), in words ([3]; IFN-γ KO mice): Failed efficacy

CC(C)(CO)n1nc(-c2ccc3cc(OC4CC4)ccc3c2)c(C(N)=O)c1N [Compound 24, 5-amino-3-(6-cyclopropoxynaphthalen-2-yl)-1-(1-hydroxy-2-methylpropan-2-yl)-1H-pyrazole-4-carboxamide]
Fecal concentration from 25 mg/kg dose [2]: 3.5 µM
Efficacy (reduction in oocyst shedding / infection), in words ([3]; IFN-γ KO mice): significant reduction in oocyst shedding
Liabilities: in vivo cardiovascular [8]: In vivo cardiovascular liabilities (data not shown)

CC(CCO)n1nc(-c2ccc3cc(OC4CC4)ccc3c2)c(C(N)=O)c1N (centres unmarked) [Compound 12, 5-amino-3-(6-cyclopropoxynaphthalen-2-yl)-1-(4-hydroxybutan-2-yl)-1H-pyrazole-4-carboxamide]
Fecal concentration from 25 mg/kg dose [2]: 10.3 µM
Liabilities: toxicity during efficacy study ([3]; IFN-γ KO mice efficacy study): Signs of toxicity during efficacy

CCOc1ccc2cc(-c3nn(CC4CCN(C)CC4)c4ncnc(N)c34)ccc2c1 [BKI 1294]
hERG activity in vitro [6]: has shown activity against the human ether-á-go-go related gene (hERG) in vitro

CCOc1ccc2cc(-c3nn(C(C)CCO)c(N)c3C(N)=O)ccc2c1 (centres unmarked) [Compound 9, 5-amino-3-(6-ethoxynaphthalen-2-yl)-1-(4-hydroxybutan-2-yl)-1H-pyrazole-4-carboxamide]
Efficacy in words ([3]; IFN-γ KO mice, 30 mg/kg BID for 5 days): remain a full log above the LLOD
Efficacy in words [3, 9]: efficacious
Efficacy (reduction in oocyst shedding / infection), in words ([3]; IFN-γ KO mice): significant reduction in oocyst shedding
